Assay results reported in the NIST ThermoML archive (doi:10.1021/je400622g).

What was measured:
[1] = refractive index (Na D-line) (dimensionless); conditions: 298.15 K; 101.33 kPa; Liquid; Standard Abbe refractometry
[2] = Liquid; for mass density: 298.15 K, Vibrating tube method
[3] = xn = mol fraction of the nth substance listed; conditions: 298.15 K, Liquid, Vibrating tube method

CCOC(C)=O [ethyl acetate]
Conditions	mass density [kg/m3]	refractive index
[1]	–	1.3698
[2]	894.5	–

Conditions	vapor or sublimation pressure [kPa]
[2], 417.02 K, Ebulliometric method (Recirculating still)	600

Conditions	Normal boiling temperature [°C]
[2], Ebulliometric method (Recirculating still)	77.04

CCOC(C)=O [ethyl acetate] + CCCO
[3]
Conditions	mass density [kg/m3]
x1 = 0.0442	804.5
x1 = 0.0911	809.6
x1 = 0.1433	815.2
x1 = 0.201	821.3
x1 = 0.2417	825.5
x1 = 0.2986	831.4
x1 = 0.3435	835.9
x1 = 0.4654	847.6
x1 = 0.5534	855.8
x1 = 0.6461	864.2
x1 = 0.6917	868.2
x1 = 0.7647	874.5
x1 = 0.8037	877.9
x1 = 0.8347	880.5
x1 = 0.8535	882.1
x1 = 0.9053	886.4
x1 = 0.9649	891.4
x1 = 1	894.5

COC(C)=O [methyl ethanoate]
Conditions	vapor or sublimation pressure [kPa]
[2], 393.01 K, Ebulliometric method (Recirculating still)	600

CCCO [propan-1-ol]
Conditions	mass density [kg/m3]
[2]	799.6

Conditions	vapor or sublimation pressure [kPa]
[2], 427.2 K, Ebulliometric method (Recirculating still)	600

CCCO [propan-1-ol] + CCCOC(C)=O
Conditions	mass density [kg/m3]
[3], x2 = 0	799.6

CCCO [propan-1-ol] + CCOC(C)=O
Conditions	mass density [kg/m3]
[3], x2 = 0	799.6

CCCOC(C)=O [propyl ethanoate]
Conditions	mass density [kg/m3]
[2]	882.4

Conditions	vapor or sublimation pressure [kPa]
[2], 446.02 K, Ebulliometric method (Recirculating still)	600

CCCOC(C)=O [propyl ethanoate] + CCCO
[3]
Conditions	mass density [kg/m3]
x1 = 0.0544	805.9
x1 = 0.0997	810.9
x1 = 0.1515	816.5
x1 = 0.1951	821
x1 = 0.2503	826.4
x1 = 0.3164	832.6
x1 = 0.3481	835.4
x1 = 0.4144	841.2
x1 = 0.4959	847.9
x1 = 0.5463	851.8
x1 = 0.6051	856.2
x1 = 0.6968	862.8
x1 = 0.7528	866.6
x1 = 0.7893	869
x1 = 0.7984	869.7
x1 = 0.8531	873.2
x1 = 0.8873	875.4
x1 = 0.9521	879.4
x1 = 1	882.4
